Measured values published in PubChem BioAssay AID330 (DTP/NCI, 2004).
Inconclusive results and toxic doses are left out. Rule for the calls: active = survival T/C of 150% or more; inactive = T/C below 125% in these data.

Tested on: P388 leukemia ip, CD2F1 mice, survival T/C
Assay: NCI In Vivo Anticancer Drug Screen. Data for tumor model P388 Leukemia (intraperitoneal) in CD2F1 (CDF1) mice
Conditions: endpoint: median survival time, higher = longer survival
Procedure, shortened: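 Mice carrying the transplanted tumor received test compound or vehicle. Survival was recorded in each group, and the value is the treated-group measurement divided by that of the vehicle-treated control group.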

[1] = dose: 100.0 mg/kg/injection, schedule: Q04DX003 (ip), vehicle: Klucel (hydroxypropylcellulose) (HPC)
[2] = dose: 200.0 mg/kg/injection, schedule: Q04DX003 (ip), vehicle: Klucel (hydroxypropylcellulose) (HPC)
[3] = dose: 400.0 mg/kg/injection, schedule: Q04DX003 (ip), vehicle: Klucel (hydroxypropylcellulose) (HPC)

Measured: T/C

CN=C(N)NN=C(c1ccc(C)cc1)c1ccc(C)cc1
inactive: dose: 12.5 mg/kg/injection, schedule: Q04DX002 (ip), vehicle: saline with Tween-80 91 % of control | dose: 25.0 mg/kg/injection, schedule: Q04DX002 (ip), vehicle: saline with Tween-80 104 % of control | dose: 100.0 mg/kg/injection, schedule: Q04DX002 (ip), vehicle: saline with Tween-80 96 % of control | dose: 200.0 mg/kg/injection, schedule: Q04DX002 (ip), vehicle: saline with Tween-80 100 % of control

O=C(c1ccccc1)C(c1ccccc1)n1ncc2c1CCC2 (stereo not given)
inactive: [1] 105 % of control | [2] 100 % of control | [3] 103 % of control

Cc1nn(C)c(=O)c2c3ccccc3nn12
inactive: dose: 100.0 mg/kg/injection, schedule: Q01DX001 (ip), vehicle: saline with Tween-80 100 % of control | dose: 200.0 mg/kg/injection, schedule: Q01DX001 (ip), vehicle: saline with Tween-80 95 % of control | dose: 400.0 mg/kg/injection, schedule: Q01DX001 (ip), vehicle: saline with Tween-80 100 % of control

Cc1cc(NCCCCCCCCNc2cc(C)nc3cc(N)ccc23)c2ccc(N)cc2n1
inactive: dose: 0.78 mg/kg/injection, schedule: Q01DX009 (ip), vehicle: water 119 % of control | dose: 1.56 mg/kg/injection, schedule: Q01DX009 (ip), vehicle: water 123 % of control

O=S(=O)(Cc1ccccc1)c1ccccc1
inactive: dose: 50.0 mg/kg/injection, schedule: Q01DX009 (ip), vehicle: saline 118 % of control | dose: 100.0 mg/kg/injection, schedule: Q01DX009 (ip), vehicle: saline 118 % of control | dose: 200.0 mg/kg/injection, schedule: Q01DX009 (ip), vehicle: saline 116 % of control

CCCN(CCC)c1nnc([N+](=O)[O-])s1
inactive: dose: 50.0 mg/kg/injection, schedule: Q01DX001 (ip), vehicle: other 104 % of control | dose: 100.0 mg/kg/injection, schedule: Q01DX001 (ip), vehicle: other 100 % of control | dose: 200.0 mg/kg/injection, schedule: Q01DX001 (ip), vehicle: other 104 % of control

O=C1CCC(NCCc2ccccc2)C(=O)O1 (stereo not given)
inactive: dose: 50.0 mg/kg/injection, schedule: Q01DX009 (ip), vehicle: Klucel (hydroxypropylcellulose) (HPC) 98 % of control | dose: 100.0 mg/kg/injection, schedule: Q01DX009 (ip), vehicle: Klucel (hydroxypropylcellulose) (HPC) 92 % of control | dose: 200.0 mg/kg/injection, schedule: Q01DX009 (ip), vehicle: Klucel (hydroxypropylcellulose) (HPC) 103 % of control

CN(C(=O)C(Cl)Cl)c1ccc(-c2csc(Cc3ccccc3)n2)cc1
inactive: [1] 101 % of control | [2] 99 % of control | [3] 97 % of control

NC(=O)CC1(O)c2ccccc2C(=O)c2ccccc21
inactive: dose: 3.13 mg/kg/injection, schedule: Q01DX009 (ip), vehicle: clinical formulation 97 % of control | dose: 6.25 mg/kg/injection, schedule: Q01DX009 (ip), vehicle: clinical formulation 104 % of control | dose: 12.5 mg/kg/injection, schedule: Q01DX009 (ip), vehicle: clinical formulation 97 % of control | dose: 25.0 mg/kg/injection, schedule: Q01DX009 (ip), vehicle: clinical formulation 94 % of control | dose: 50.0 mg/kg/injection, schedule: Q01DX009 (ip), vehicle: clinical formulation 97 % of control | dose: 100.0 mg/kg/injection, schedule: Q01DX009 (ip), vehicle: clinical formulation 100 % of control

c1ccc(CSc2nn[nH]n2)cc1
inactive: [1] 96 % of control | [2] 102 % of control | [3] 101 % of control

O=S(=O)(OC1=CCCCC1)C(F)(F)F
inactive: dose: 50.0 mg/kg/injection, schedule: Q01DX009 (ip), vehicle: saline with Tween-80 100 % of control | dose: 100.0 mg/kg/injection, schedule: Q01DX009 (ip), vehicle: saline with Tween-80 109 % of control | dose: 200.0 mg/kg/injection, schedule: Q01DX009 (ip), vehicle: saline with Tween-80 112 % of control | dose: 400.0 mg/kg/injection, schedule: Q01DX009 (ip), vehicle: saline with Tween-80 115 % of control

COc1cc(Br)c(/C=N/O)cc1OC
inactive: dose: 50.0 mg/kg/injection, schedule: Q01DX005 (ip), vehicle: Klucel (hydroxypropylcellulose) (HPC) 104 % of control | dose: 100.0 mg/kg/injection, schedule: Q01DX005 (ip), vehicle: Klucel (hydroxypropylcellulose) (HPC) 95 % of control | dose: 200.0 mg/kg/injection, schedule: Q01DX005 (ip), vehicle: Klucel (hydroxypropylcellulose) (HPC) 91 % of control
